Test results as given in the NIST ThermoML archive (doi:10.1021/je900124n).
“And” between values parts separate entries of the source, which are not always exact repeats. Equal values may be shown once. ± gives the expanded uncertainty stated by the source.

Conditions: Fluid (supercritical or subcritical phases), Buoyancy - hydrostatic balance with magnetic suspension - two sinkers

CCC [propane]
Conditions	mass density
380 K, 4703.9 kPa	148.078 ± 0.14 kg/m3 [middle of 5 runs]
380 K, 4705.6 kPa	148.36 ± 0.034 kg/m3 [middle of 4 runs]
380 K, 4705.7 kPa	148.363 ± 0.034 kg/m3
380 K, 4755.7 kPa	155.492 ± 0.2 kg/m3 [middle of 5 runs]
380 K, 4879.5 kPa	178.216 ± 0.068 kg/m3 and 178.213 ± 0.068 kg/m3
380 K, 4879.6 kPa	178.236 ± 0.068 kg/m3 and 178.204 ± 0.068 kg/m3 and 178.214 ± 0.068 kg/m3
380 K, 4957.6 kPa	197.127 ± 0.063 kg/m3
380 K, 4957.7 kPa	197.117 ± 0.064 kg/m3 and 197.11 ± 0.064 kg/m3
380 K, 4957.8 kPa	197.115 ± 0.064 kg/m3 [middle of 4 runs]
380 K, 4957.9 kPa	197.119 ± 0.064 kg/m3
380 K, 5001.3 kPa	208.689 ± 0.03 kg/m3
380 K, 5001.5 kPa	208.739 ± 0.03 kg/m3
380 K, 5002.2 kPa	208.955 ± 0.03 kg/m3 and 208.946 ± 0.03 kg/m3 and 208.942 ± 0.03 kg/m3
380 K, 5002.3 kPa	208.948 ± 0.03 kg/m3 and 208.946 ± 0.03 kg/m3
380 K, 5041.6 kPa	219.674 ± 0.038 kg/m3 and 219.68 ± 0.038 kg/m3 and 219.675 ± 0.038 kg/m3
380 K, 5041.7 kPa	219.681 ± 0.038 kg/m3 [middle of 4 runs]
380 K, 5067.9 kPa	226.412 ± 0.032 kg/m3 and 226.42 ± 0.032 kg/m3
380 K, 5068 kPa	226.427 ± 0.032 kg/m3
380 K, 5068.1 kPa	226.418 ± 0.032 kg/m3
380 K, 5141.5 kPa	243.559 ± 0.036 kg/m3 and 243.562 ± 0.036 kg/m3 and 243.564 ± 0.036 kg/m3
380 K, 5141.6 kPa	243.563 ± 0.036 kg/m3 [middle of 5 runs]
380 K, 5268.6 kPa	264.989 ± 0.041 kg/m3 and 264.991 ± 0.041 kg/m3
380 K, 5268.8 kPa	264.985 ± 0.041 kg/m3 and 264.995 ± 0.041 kg/m3
380 K, 5408.3 kPa	280.991 ± 0.074 kg/m3 [middle of 4 runs]
380 K, 5408.4 kPa	280.991 ± 0.074 kg/m3 and 280.992 ± 0.074 kg/m3 and 280.986 ± 0.074 kg/m3
380 K, 6684.1 kPa	336.97 ± 0.056 kg/m3 and 336.962 ± 0.056 kg/m3
380 K, 6684.2 kPa	336.972 ± 0.056 kg/m3
380 K, 6684.3 kPa	336.974 ± 0.056 kg/m3 and 336.97 ± 0.056 kg/m3
380 K, 6684.4 kPa	336.974 ± 0.056 kg/m3
380 K, 7975.3 kPa	360.582 ± 0.047 kg/m3
380 K, 7975.4 kPa	360.58 ± 0.047 kg/m3
380 K, 7975.5 kPa	360.582 ± 0.047 kg/m3 [middle of 6 runs]
380 K, 7975.6 kPa	360.58 ± 0.047 kg/m3 and 360.581 ± 0.047 kg/m3
380 K, 7975.7 kPa	360.586 ± 0.047 kg/m3
380 K, 7975.8 kPa	360.584 ± 0.047 kg/m3 and 360.583 ± 0.047 kg/m3
380 K, 10919 kPa	391.154 ± 0.05 kg/m3 [middle of 4 runs]
380 K, 10920 kPa	391.156 ± 0.05 kg/m3 and 391.155 ± 0.05 kg/m3
380 K, 11880 kPa	398.187 ± 0.049 kg/m3 and 398.185 ± 0.049 kg/m3
380 K, 11881 kPa	398.189 ± 0.049 kg/m3 and 398.186 ± 0.049 kg/m3
380 K, 15945 kPa	420.987 ± 0.052 kg/m3 and 420.99 ± 0.052 kg/m3
380 K, 15946 kPa	420.986 ± 0.052 kg/m3
380 K, 19820 kPa	436.807 ± 0.053 kg/m3 and 436.806 ± 0.053 kg/m3
380 K, 19821 kPa	436.811 ± 0.053 kg/m3 and 436.808 ± 0.053 kg/m3 and 436.81 ± 0.053 kg/m3
380 K, 23098 kPa	447.702 ± 0.055 kg/m3 [middle of 5 runs]
380 K, 23099 kPa	447.703 ± 0.055 kg/m3 and 447.702 ± 0.055 kg/m3
380 K, 23697 kPa	449.488 ± 0.055 kg/m3 and 449.487 ± 0.055 kg/m3 and 449.489 ± 0.055 kg/m3
380 K, 29645 kPa	465.242 ± 0.057 kg/m3 and 465.241 ± 0.057 kg/m3
380 K, 29646 kPa	465.242 ± 0.057 kg/m3 and 465.241 ± 0.057 kg/m3
380 K, 34344 kPa	475.596 ± 0.058 kg/m3 [middle of 4 runs]
380 K, 34345 kPa	475.597 ± 0.058 kg/m3
380.01 K, 954.8 kPa	14.3809 ± 0.0041 kg/m3
380.01 K, 954.81 kPa	14.381 ± 0.0041 kg/m3
380.01 K, 3513.7 kPa	73.3411 ± 0.055 kg/m3
380.01 K, 5268.9 kPa	264.989 ± 0.041 kg/m3
380.01 K, 6684.6 kPa	336.973 ± 0.056 kg/m3
380.01 K, 6684.7 kPa	336.971 ± 0.056 kg/m3
400 K, 336.43 kPa	4.5554 ± 0.0029 kg/m3 and 4.5553 ± 0.0029 kg/m3
400 K, 599.95 kPa	8.2683 ± 0.0033 kg/m3
400 K, 599.96 kPa	8.2685 ± 0.0033 kg/m3 and 8.2684 ± 0.0033 kg/m3
400 K, 956.18 kPa	13.5094 ± 0.0039 kg/m3
400 K, 957.16 kPa	13.5243 ± 0.0039 kg/m3
400 K, 957.89 kPa	13.5351 ± 0.0039 kg/m3
400 K, 959.04 kPa	13.5529 ± 0.0039 kg/m3
400 K, 962.98 kPa	13.6116 ± 0.004 kg/m3
400 K, 1542.1 kPa	22.7724 ± 0.024 kg/m3
400 K, 1542.2 kPa	22.7738 ± 0.024 kg/m3 and 22.7745 ± 0.024 kg/m3
400 K, 1542.3 kPa	22.7764 ± 0.024 kg/m3
400 K, 1542.4 kPa	22.7771 ± 0.024 kg/m3
400 K, 2380.3 kPa	37.7472 ± 0.028 kg/m3 and 37.7486 ± 0.028 kg/m3 and 37.7481 ± 0.028 kg/m3
400 K, 2380.5 kPa	37.7508 ± 0.028 kg/m3 and 37.7503 ± 0.028 kg/m3
400 K, 3308.6 kPa	57.6872 ± 0.034 kg/m3 [middle of 5 runs]
400 K, 3901.8 kPa	73.2165 ± 0.043 kg/m3 [middle of 4 runs]
400 K, 3901.9 kPa	73.2188 ± 0.043 kg/m3
400 K, 3902 kPa	73.2191 ± 0.043 kg/m3
400 K, 4691.9 kPa	99.4254 ± 0.017 kg/m3 and 99.4238 ± 0.017 kg/m3 and 99.4251 ± 0.017 kg/m3
400 K, 4692 kPa	99.4292 ± 0.017 kg/m3 and 99.4262 ± 0.017 kg/m3
400 K, 5668.4 kPa	147.912 ± 0.11 kg/m3
400 K, 5668.5 kPa	147.917 ± 0.11 kg/m3 [middle of 6 runs]
400 K, 5673.1 kPa	148.232 ± 0.03 kg/m3
400 K, 5673.2 kPa	148.239 ± 0.03 kg/m3 and 148.234 ± 0.03 kg/m3 and 148.236 ± 0.03 kg/m3
400 K, 5673.3 kPa	148.236 ± 0.03 kg/m3
400 K, 5676.5 kPa	148.439 ± 0.11 kg/m3 and 148.438 ± 0.11 kg/m3
400 K, 5676.6 kPa	148.445 ± 0.11 kg/m3 and 148.444 ± 0.11 kg/m3 and 148.437 ± 0.11 kg/m3
400 K, 5676.7 kPa	148.447 ± 0.11 kg/m3 [middle of 8 runs]
400 K, 5676.8 kPa	148.451 ± 0.11 kg/m3 [middle of 9 runs]
400 K, 5676.9 kPa	148.458 ± 0.11 kg/m3 [middle of 6 runs]
400 K, 5677 kPa	148.462 ± 0.11 kg/m3 [middle of 5 runs]
400 K, 5677.1 kPa	148.464 ± 0.11 kg/m3 and 148.466 ± 0.11 kg/m3
400 K, 5677.2 kPa	148.477 ± 0.11 kg/m3 and 148.472 ± 0.11 kg/m3
400 K, 5677.4 kPa	148.487 ± 0.11 kg/m3 and 148.49 ± 0.11 kg/m3
400 K, 5677.9 kPa	148.509 ± 0.11 kg/m3
400 K, 5678 kPa	148.518 ± 0.11 kg/m3 and 148.516 ± 0.11 kg/m3 and 148.517 ± 0.11 kg/m3
400 K, 5678.1 kPa	148.519 ± 0.11 kg/m3 and 148.526 ± 0.11 kg/m3 and 148.518 ± 0.11 kg/m3
400 K, 5678.2 kPa	148.528 ± 0.11 kg/m3 [middle of 13 runs]
400 K, 5678.3 kPa	148.528 ± 0.11 kg/m3 and 148.529 ± 0.11 kg/m3
400 K, 5781.6 kPa	155.313 ± 0.079 kg/m3 and 155.311 ± 0.079 kg/m3
400 K, 5781.7 kPa	155.314 ± 0.079 kg/m3 and 155.311 ± 0.079 kg/m3
400 K, 6338.3 kPa	196.876 ± 0.11 kg/m3 and 196.877 ± 0.11 kg/m3
400 K, 6338.4 kPa	196.877 ± 0.11 kg/m3 [middle of 5 runs]
400 K, 6338.5 kPa	196.877 ± 0.11 kg/m3
400 K, 6630.2 kPa	219.389 ± 0.089 kg/m3
400 K, 6630.3 kPa	219.386 ± 0.089 kg/m3 and 219.389 ± 0.089 kg/m3
400 K, 6630.4 kPa	219.389 ± 0.089 kg/m3 [middle of 4 runs]
400 K, 6978.6 kPa	243.19 ± 0.06 kg/m3 and 243.192 ± 0.06 kg/m3
400 K, 6978.7 kPa	243.193 ± 0.06 kg/m3 and 243.189 ± 0.06 kg/m3 and 243.196 ± 0.06 kg/m3
400 K, 6978.8 kPa	243.19 ± 0.06 kg/m3
400 K, 6978.9 kPa	243.193 ± 0.06 kg/m3
400 K, 7736.9 kPa	280.444 ± 0.051 kg/m3 and 280.447 ± 0.051 kg/m3
400 K, 7737 kPa	280.444 ± 0.051 kg/m3
400 K, 7737.1 kPa	280.449 ± 0.051 kg/m3 and 280.444 ± 0.051 kg/m3
400 K, 7737.2 kPa	280.444 ± 0.051 kg/m3
400 K, 7737.3 kPa	280.449 ± 0.051 kg/m3 and 280.45 ± 0.051 kg/m3
400 K, 7912.9 kPa	286.854 ± 0.051 kg/m3
400 K, 7913.2 kPa	286.868 ± 0.051 kg/m3 and 286.866 ± 0.051 kg/m3 and 286.857 ± 0.051 kg/m3
400 K, 7913.4 kPa	286.864 ± 0.051 kg/m3
400 K, 10112 kPa	336.235 ± 0.048 kg/m3 [middle of 5 runs]
